Results reported in patent US9193744B2, “Heterocyclic nuclear hormone receptor modulators” (AbbVie Inc., priority 2012, dated 2015).
Where two headings read alike, the source gives them in different places.

Tests used:
IL-6 = experiment: A549 Cell Assay to Measure Inflammation Markers (inhibition of IL-1β-induced IL-6); type: cell-based
In short: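 A549 cells pre-incubated 1 h with compound (10-point dilution, 0.1% DMSO final) in charcoal-stripped serum medium, then stimulated 4 h with 1 ng/mL IL-1β at 37° C. Supernatant IL-6 measured by MSD immunoassay; IC50 and Emax relative to 1 μM prednisolone as 100% inhibition; viability checked by CellTiter-Glo.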

[1] = target: T1, Glucocorticoid Receptor (GR) (Homo sapiens, UniProt P04150); experiment: GR Fluorescence Polarization Assay (PolarScreen Glucocorticoid Receptor Competitor Assay, Red); settings: fluorescence polarization binding ranges
T1 construct: purchased Invitrogen P2893
T1 sequence (P04150 1-777): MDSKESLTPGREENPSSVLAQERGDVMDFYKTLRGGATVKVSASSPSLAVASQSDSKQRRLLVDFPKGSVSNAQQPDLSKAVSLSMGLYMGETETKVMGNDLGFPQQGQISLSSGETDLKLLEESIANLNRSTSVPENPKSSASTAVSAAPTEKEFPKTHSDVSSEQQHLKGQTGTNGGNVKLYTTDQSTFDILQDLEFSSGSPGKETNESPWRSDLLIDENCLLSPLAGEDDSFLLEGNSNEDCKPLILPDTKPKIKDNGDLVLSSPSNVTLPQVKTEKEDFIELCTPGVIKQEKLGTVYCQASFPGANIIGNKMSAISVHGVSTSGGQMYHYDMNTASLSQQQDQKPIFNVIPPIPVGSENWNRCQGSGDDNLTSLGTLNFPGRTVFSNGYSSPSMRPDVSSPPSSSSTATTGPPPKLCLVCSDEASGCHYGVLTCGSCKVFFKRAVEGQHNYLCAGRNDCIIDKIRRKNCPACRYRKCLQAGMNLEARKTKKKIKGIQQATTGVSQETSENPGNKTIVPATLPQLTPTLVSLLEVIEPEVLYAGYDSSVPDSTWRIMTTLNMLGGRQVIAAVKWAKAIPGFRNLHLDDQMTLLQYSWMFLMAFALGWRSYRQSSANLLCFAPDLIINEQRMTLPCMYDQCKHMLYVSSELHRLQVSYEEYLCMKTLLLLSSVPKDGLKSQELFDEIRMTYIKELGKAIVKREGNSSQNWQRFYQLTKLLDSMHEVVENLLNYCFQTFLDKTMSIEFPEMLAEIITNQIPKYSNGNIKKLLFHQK
In short: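 Compound displacement of a red-labelled glucocorticoid from GR, read as fluorescence polarization. Tracer, receptor and 1:4-serially diluted compound were left together overnight at 4° C in the kit assay buffer.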

[2] = A549 cells, read-out: A549 cell assay
[3] = Homo sapiens, A549 cells, read-out: A549 cell assay

Compound | IC50 (IL-6; [2]) | IC50 [1] | IC50 (IL-6; [3]) | IC50 (IL-6; Homo sapiens, A549, read-out: A549 cell assay)
Cc1cc(-n2ncc3cc4c(cc32)CCC[C@H]2C[C@](C)(O)CC[C@@]42Cc2ccccn2)ccn1 [Example 60] | < 100 nM | < 100 nM | – | –
CC[C@]12CC[C@@](O)(C(F)(F)F)[C@H](O)[C@H]1CCCc1cc3c(cnn3-c3ccc(F)cc3)cc12 (single isomer, unassigned) [Example 97] | – | < 100 nM | < 100 nM | –
C#C[C@]1(O)CC[C@]2(CC)c3cc4cnn(-c5ccc(F)cc5)c4cc3CCC[C@H]2C1 (single isomer, unassigned) [Example 110] | – | < 100 nM | 100 to 1000 nM | –
CCC[C@@]1(O)CC[C@]2(CC)c3cc4cnn(-c5ccc(F)cc5)c4cc3CCC[C@H]2C1 (single isomer, unassigned) [Example 6] | – | 100 to 1000 nM | 100 to 1000 nM | –
N#CC[C@@]12CC[C@](O)(C(F)(F)F)C[C@H]1CCCc1cc3c(cnn3-c3ccc(F)cc3)cc12 (single isomer, unassigned) [Example 81] | – | < 100 nM | – | < 100 nM
O=S1(=O)CCCN1C[C@@]12CC[C@](O)(C(F)(F)F)C[C@H]1CCCc1cc3c(cnn3-c3ccc(F)cc3)cc12 [Example 75, 2-(((3R,4aR,12bS)-9-(4-fluorophenyl)-3-hydroxy-3-(trifluoromethyl)-1,2,3,4,4a,5,6,7,9,12b-decahydrobenzo[6,7]cyclohepta[1,2-f]indazol-12b-yl)methyl)isothiazolidine 1,1-dioxide] | – | < 100 nM | < 100 nM | –
CC[C@@]12CC[C@](O)(COC)C[C@@H]1CCCc1cc3c(cnn3-c3ccc(F)cc3)cc12 [Example 35] | < 100 nM | < 100 nM | – | –
N#CC[C@]1(O)CC[C@]2(Cc3ncccn3)c3cc4cnn(-c5ccc(F)cc5)c4cc3CCC[C@@H]2C1 [Example 63] | < 100 nM | < 100 nM | – | –
CC[C@@]12CC[C@](O)(COC)C[C@@H]1CCOc1cc3c(cnn3-c3ccnc(C(F)(F)F)c3)cc12 [Example 141] | 1000 to 10000 nM | < 100 nM | – | –
N#CC[C@@]1(O)CC[C@@]2(CC3CC3)c3cc4cnn(-c5ccc(F)cc5)c4cc3CCC[C@H]2C1 [Example 67] | < 100 nM | < 100 nM | – | –
CC[C@]12CC[C@](O)(C(F)(F)F)C[C@H]1CCCc1cc3c(cnn3-c3ccc(F)cc3)cc12 (single isomer, unassigned) [Example 2] | – | < 100 nM | < 100 nM | –
C[C@@]1(O)CC[C@@]2(CC3CC3)c3cc4cnn(-c5ccc(F)cc5)c4cc3CCC[C@H]2C1 [Example 57] | < 100 nM | < 100 nM | – | –
CC[C@@]1(O)CC[C@@]2(Cc3ccccn3)c3cc4cnn(-c5ccc(F)cc5)c4cc3C(=O)CC[C@H]2C1 [Example 94, (3R,4aS,12bS)-3-Ethyl-9-(4-fluorophenyl)-3-hydroxy-12b-(pyridin-2-ylmethyl)-1,2,3,4,4a,5,6,12b-octahydrobenzo[6,7]cyclohepta[1,2-f]indazol-7(9H)-one] | – | < 100 nM | < 100 nM | –
N#CC[C@]1(O)CC[C@]2(Cc3ccccn3)c3cc4cnn(-c5ccncc5)c4cc3CCC[C@@H]2C1 [Example 69] | < 100 nM | < 100 nM | – | –
CC[C@]12CC[C@@](OCC(=O)O)(C(F)(F)F)C[C@@H]1CCCc1cc3c(cnn3-c3ccc(F)cc3)cc12 [Example 172, 2-(((3S,4aS,12bS)-12b-ethyl-9-(4-fluorophenyl)-3-(trifluoromethyl)-1,2,3,4,4a,5,6,7,9,12b-decahydrobenzo[6,7]cyclohepta[1,2-f]indazol-3-yl)oxy)acetic acid] | – | < 100 nM | > 10000 nM | –
CC[C@@]12CC[C@](O)(C(F)(F)F)C=C1CCCc1cc3c(cnn3-c3ccc(F)cc3)cc12 (single isomer, unassigned) [Example 106] | – | < 100 nM | < 100 nM | –
COC[C@]1(O)CC[C@]2(Cc3ccccn3)c3cc4cnn(-c5ccncc5)c4cc3CCC[C@@H]2C1 [Example 48] | < 100 nM | 100 to 1000 nM | – | –
